Data on two compounds can be found in PMC9423655, “Huntington’s disease phenotypes are improved via mTORC1 modulation by small molecule therapy” (PLoS ONE, 2022).

One assay relates to Sestrin2. On the set-up: method as in PMID 30858438, PMID 30990795. To be noted: cited from earlier work.
A further assay deals with medial prefrontal cortex. On the set-up: method as in PMID 30990795. Conditions: cited from earlier work.
Assay [1] has as its system mTORC1. Set-up: method as in PMID 30858438, PMID 30990795. Conditions: cited from earlier work.
Assay [2] concerns mTORC1. Description: mTORC1 activation (pS6K1 immunoblot) in leucine-starved HEK293T cells. The class given is cell-based. Conditions: HEK293T cells starved of leucine 50 minutes, treatment 10 minutes. The procedure: (§1) All cell lines were cultured in DMEM (Corning, #MT10013CV) supplemented with 10% heat-inactivated FBS (Gibco, #16140–071). All cell lines were maintained at 37°C and 5% CO2. For amino acid starvation, cells were rinsed once with and incubated Amino acid-free RPMI (US Biologicals, #R8999-04A) supplemented with 10% dialyzed FBS (Gibco, #26400044) for 50 min followed by treatment with NV-5297, leucine, or vehicle for 10 minutes. For leucine starvation, cells were rinsed once with and incubated in leucine-free DMEM (AthenaES, #0420) supplemented with 10% dialyzed FBS (Gibco, #26400044) for 50 minuted followed by treatment with NV-5297, leucine, or vehicle for 10 minutes.
(A) Activation of the mTORC1 pathway by NV-5297. […] (B) NV-5297 disrupts Sestrin2/GATOR2 in the in vitro Sesn2/WDR24 protein-protein interaction assay in a dose-dependent manner. […] Representative immunoblots of ^T389pS6K1 and quantification of the normalized level of ^T389pS6K1 from 8 independent experiments (F) show TORC1 activity in unedited HEK-293T cells, HEK-293T cells deficient for Sestrin 1 (Sesn1), 2 (Sesn2) and 3 (Sesn3) (D) or HEK-293T cells deficient for the GATOR1 component Nprl3 (E) after 50 minutes leucine starvation followed by the addition of vehicle, NV-5297 or leucine for 10 minutes. […]

Another assay has as its system Npr13KO HEK293T cells. Description: mTORC1 activation (p70S6K1) in HEK293T cells null for GATOR1 component Nprl3. To be noted: leucine-starved 50 minutes, treatment 10 minutes. The assay is classed as cell-based. The procedure: as §1
(§2) To ascertain if Sestrins and the GATOR pathway are required for NV-5297 activity, we tested mTORC1 activation in cells null for either all three Sestrin isoforms [SesnTKO] or for the GATOR1 component Npr13 [Npr13KO] [44]. […]
(§3) (A) Activation of the mTORC1 pathway by NV-5297. […] Representative immunoblots of ^T389pS6K1 and quantification of the normalized level of ^T389pS6K1 from 8 independent experiments (F) show TORC1 activity in unedited HEK-293T cells, HEK-293T cells deficient for Sestrin 1 (Sesn1), 2 (Sesn2) and 3 (Sesn3) (D) or HEK-293T cells deficient for the GATOR1 component Nprl3 (E) after 50 minutes leucine starvation followed by the addition of vehicle, NV-5297 or leucine for 10 minutes. […]

Assay [3] deals with T1, Sestrin2/GATOR2 interaction (Homo sapiens, UniProt P58004).
T1 construct: endogenous in cells; host or cells: Flag-WDR24 293T (HEK293T) cells
T1 sequence (P58004 1-480): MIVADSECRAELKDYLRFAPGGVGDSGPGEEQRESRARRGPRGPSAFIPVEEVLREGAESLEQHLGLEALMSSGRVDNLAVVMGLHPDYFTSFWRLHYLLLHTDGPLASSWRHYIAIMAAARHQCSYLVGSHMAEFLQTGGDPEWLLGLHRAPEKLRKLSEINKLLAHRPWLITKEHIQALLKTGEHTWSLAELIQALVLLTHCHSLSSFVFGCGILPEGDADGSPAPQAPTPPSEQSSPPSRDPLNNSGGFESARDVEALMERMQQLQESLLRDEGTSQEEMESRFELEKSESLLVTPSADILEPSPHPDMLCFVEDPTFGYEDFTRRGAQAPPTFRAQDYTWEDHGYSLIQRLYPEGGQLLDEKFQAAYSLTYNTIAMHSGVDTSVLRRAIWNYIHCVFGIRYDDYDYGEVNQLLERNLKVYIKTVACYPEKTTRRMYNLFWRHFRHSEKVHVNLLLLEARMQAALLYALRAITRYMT
Briefly: Intact cells-based Sestrin2/GATOR2 protein-protein interaction assay, Flag-WDR24 293T cells. The class given is cell-based. To be noted: leucine-starved flag-WDR24 HEK-293T cells, 10 minutes, S1C Fig. The protocol: Flag-WDR24 293T cells were washed and placed in leucine-free DMEM supplemented 10% dFBS for 50 minutes followed by treatment with NV-5297, leucine or vehicle for 10 minutes. Cells were rinsed once with ice-cold PBS and immediately lysed with Triton lysis buffer (1% Triton, 10 mM β-glycerol phosphate, 10 mM pyrophosphate, 40 mM Hepes pH 7.4, 2.5 mM MgCl2 and 1 tablet of EDTA-free protease inhibitor). The cell lysates were cleared by centrifugation at 13,200 rpm at 4°C in a microcentrifuge for 10 minutes. Prior to immunoprecipitations, an aliquot of lysate was taken for SDS-PAGE and immunoblotting for pS6K1, S6K1 and tubulin. For anti-FLAG immunoprecipitations, the FLAG-M2 affinity gel was washed 3 times with Triton lysis buffer, and 30 μl of a 50/50 slurry of the FLAG-M2 affinity gel was then added to approximately 2 mg of clarified cell lysates and incubated with rotation for 3 hours at 4°C. Following immunoprecipitation, the beads were washed one time with Triton wash buffer containing 500 mM NaCl. Immunoprecipitated proteins were denatured, resolved by SDS-PAGE, and analyzed by immunoblotting.
Next, Sestrin2/GATOR2 protein-protein interactions in response to NV-5297 were measured using cell-free assays and in vitro. For this, HEK293T cells stably expressing flag-WDR24, a component of GATOR2 [44], were used. The cell-free assays utilized Sestrin2/GATOR2 complexes immunoprecipitated from amino acid-starved cells with an anti-flag antibody.

In a further assay the test system is SesnTKO HEK293T cells. Description: mTORC1 activation (p70S6K1) in HEK293T cells null for all three Sestrin isoforms. The assay is classed as cell-based. To be noted: leucine-starved 50 minutes, treatment 10 minutes. The procedure: as §1, §2, §3

For the compound `CC(C)(C[C@H](N)C(=O)O)C(F)F` [NV-5138], in the assay on Sestrin2, the Sestrin2 binding entry was “binds Sestrin2”. Besides, the “synaptic formation in the medial prefrontal cortex” value in the assay with medial prefrontal cortex is given as “improved synaptic formation”. Further, the “mTORC1 activation in peripheral tissues and CNS” value in the assay with mTORC1 [1] was “transiently activates mTORC1”.
Regarding `CC(C)C[C@H](N)C(=O)O` [leucine, reference compound], in the assay with mTORC1 [2], the “mTORC1 activation measured by phosphorylated S6K1 (pS6K1 / p70S6K1)” value is “activates mTORC1 in leucine-starved HEK293T cells in a dose-dependent manner”. Also, the p70S6K1 levels entry with Npr13KO HEK293T cells and in the assay with SesnTKO HEK293T cells was “remained unchanged” in each case. In addition, in assay [3], the “p70S6K1 (T389 pS6K1) level” value is given as “Dose-dependent activation of mTORC1”.
